Patent US9334246B2, “Substituted triazines for malaria treatment and chemoprophylaxis” (The United States of America, as represented by the …, priority 2013, dated 2016)
In brackets after ≈: the same amount, converted by molar mass.

Experiments:
P. falciparum D6 = assay: Malaria SYBR Green Fluorescence Assay, D6 strain; assay type: cell-based, Plasmodium falciparum
P. falciparum W2 = assay: Malaria SYBR Green Fluorescence Assay, W2 strain; assay type: cell-based, Plasmodium falciparum
P. falciparum C235 = assay: Malaria SYBR Green Fluorescence Assay, C235 strain; assay type: cell-based, Plasmodium falciparum
[1] = target: hERG potassium ion channel (Homo sapiens, UniProt Q12809); assay: hERG patch clamp assay (% inhibition at 10 μM); details: for hERG (% inhibition): 10 μM
[2] = % inhibition at 10 μM, patch clamp
[3] = Plasmodium falciparum, SYBR Green Assay

hERG potassium ion channel, sequence (Q12809 whole entry): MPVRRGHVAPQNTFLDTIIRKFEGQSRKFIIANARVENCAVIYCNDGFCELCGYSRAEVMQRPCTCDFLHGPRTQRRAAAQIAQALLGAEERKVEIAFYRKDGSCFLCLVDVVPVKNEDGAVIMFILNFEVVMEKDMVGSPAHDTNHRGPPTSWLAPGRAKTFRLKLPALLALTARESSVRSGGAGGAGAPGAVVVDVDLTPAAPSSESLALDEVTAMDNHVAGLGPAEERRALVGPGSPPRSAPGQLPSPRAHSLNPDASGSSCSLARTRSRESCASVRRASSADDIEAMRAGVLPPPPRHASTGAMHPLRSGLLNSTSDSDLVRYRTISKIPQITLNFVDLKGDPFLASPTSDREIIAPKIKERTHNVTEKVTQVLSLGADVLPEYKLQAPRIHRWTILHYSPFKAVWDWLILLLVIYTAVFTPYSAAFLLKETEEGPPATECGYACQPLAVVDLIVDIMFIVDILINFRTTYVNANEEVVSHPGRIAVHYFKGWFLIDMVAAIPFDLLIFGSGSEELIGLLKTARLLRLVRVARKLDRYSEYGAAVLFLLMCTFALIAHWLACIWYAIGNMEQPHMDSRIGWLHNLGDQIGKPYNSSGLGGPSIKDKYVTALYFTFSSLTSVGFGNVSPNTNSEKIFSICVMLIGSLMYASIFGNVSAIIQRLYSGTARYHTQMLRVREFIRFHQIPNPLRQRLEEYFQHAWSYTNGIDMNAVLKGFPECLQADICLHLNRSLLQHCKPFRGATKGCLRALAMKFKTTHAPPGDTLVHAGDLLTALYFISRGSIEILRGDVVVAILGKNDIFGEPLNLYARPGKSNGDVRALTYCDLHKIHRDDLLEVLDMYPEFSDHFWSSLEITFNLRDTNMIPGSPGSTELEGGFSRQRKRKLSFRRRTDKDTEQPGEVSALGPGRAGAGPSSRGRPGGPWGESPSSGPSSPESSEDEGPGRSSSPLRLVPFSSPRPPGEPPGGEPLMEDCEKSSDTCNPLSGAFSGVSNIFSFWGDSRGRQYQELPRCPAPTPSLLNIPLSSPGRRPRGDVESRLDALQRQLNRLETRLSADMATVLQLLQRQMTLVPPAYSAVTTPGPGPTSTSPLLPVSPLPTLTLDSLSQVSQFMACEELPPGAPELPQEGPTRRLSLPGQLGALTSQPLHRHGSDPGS

Row | Compound | D6 (P. falciparum D6; SYBR Green Assay) [ng/mL] | W2 (P. falciparum W2; SYBR Green Assay) [ng/mL] | C235 (P. falciparum C235; SYBR Green Assay) [ng/mL] | hERG [1, 2] [%] | other results
1 | ClC(Cl)(Cl)c1nc(NCCN2CCCC2)nc(-c2ccc(-c3ccccc3)cc2)n1 [Cmpd 196] | 31 | 25 | 30 | 53 | 
2 | CN1CCCC1CCNc1nc(-c2ccc(F)cc2)nc(C(Cl)(Cl)Cl)n1 (centres unmarked) [Cmpd 382] |  |  |  |  | D6 (SYBR Green Assay IC50) (P. falciparum D6): 0.017 µg/mL; W2 (SYBR Green Assay IC50) (P. falciparum W2): 0.02 µg/mL; C235 (SYBR Green Assay IC50) (P. falciparum C235): 0.036 µg/mL; hERG (% inhibition) [1]: 105%
3 | CCN1CCCC(Nc2nc(-c3ccc(F)cc3)nc(C(Cl)(Cl)Cl)n2)C1 (centres unmarked) [Cmpd 387] |  |  |  |  | D6 (SYBR Green Assay IC50) (P. falciparum D6): 0.004 µg/mL; W2 (SYBR Green Assay IC50) (P. falciparum W2): 0.007 µg/mL; C235 (SYBR Green Assay IC50) (P. falciparum C235): 0.013 µg/mL; hERG (% inhibition) [1]: 108%
4 | CN1CCN(c2nc(-c3ccc(Cl)cc3)nc(C(Cl)(Cl)Cl)n2)CC1 [Cmpd 29] | 307 | 173 | 351 | 5 | 
5 | CC(CN(C)C)Nc1nc(Nc2ccc(Cl)c(Cl)c2)nc(n1)C(Cl)(Cl)Cl [Compound 640] |  |  |  |  | D6 (SYBR Green Assay IC50) (P. falciparum D6): 0.008 µg/mL; W2 (SYBR Green Assay IC50) (P. falciparum W2): 0.008 µg/mL; C235 (SYBR Green Assay IC50) (P. falciparum C235): 0.01 µg/mL; hERG (% inhibition) [1]: 23%
6 | CSc1ccc(-c2nc(NCCC3CCCN3C)nc(C(Cl)(Cl)Cl)n2)cc1 (centres unmarked) [Cmpd 45] | 43 | 91 | 74 | 38 | 
7 | 4-(4-(((1-ethylpiperidin-4-yl)methyl)amino)-6-(trichloromethyl)-1,3,5-triazin-2-yl)benzoic acid [Example 12] | 5 | 11 | 4 |  | hERG ([1]; hERG activity as % inhibition): 39%
8 | CN1CCC(Nc2nc(-c3cccc(C(F)(F)F)c3)nc(C(Cl)(Cl)Cl)n2)CC1 [Cmpd 212] | 45 | 16 | 25 | 80 | 
9 | Cc1ccccc1-c1nc(NCCN2CCCC2)nc(C(Cl)(Cl)Cl)n1 [Cmpd 121] | 70 | 42 | 84 | 103 | 
10 | COc1cccc(-c2nc(NCCN3CCCC3)nc(C(Cl)(Cl)Cl)n2)c1 [Cmpd 192] | 18 | 13 | 12 | 100 | 
11 | CC1(C)CC(Nc2nc(-c3ccc(C(C)(C)C)cc3)nc(C(Cl)(Cl)Cl)n2)CC(C)(C)N1 [Cmpd 321] | 6 | 3 | 11 | 11 | 
12 | CCN(CC)CCNc1nc(-c2ccc3ccccc3c2)nc(C(Cl)(Cl)Cl)n1 [Cmpd 220] | 40 | 8 | 12 | 66 | 
13 | CN1CCCC1CCNc1nc(Nc2ccccc2N2CCOCC2)nc(C(Cl)(Cl)Cl)n1 (centres unmarked) [Cmpd 64] | 140 | 75 | 121 | 100 | 
14 | CCN(CC)CCNc1nc(Cc2ccc(OC)cc2)nc(C(Cl)(Cl)Cl)n1 [Cmpd 59] | 290 | 153 | 288 | 100 | 
15 | COc1ncccc1Nc1nc(NC2CC(C)(C)NC(C)(C)C2)nc(C(Cl)(Cl)Cl)n1 [Cmpd 348] | 11 | 9 | 18 | 96 | 
16 | CC(C)(C)c1ccc(cc1)c2nc(Nc3ccncc3)nc(n2)C(Cl)(Cl)Cl [Compound 739] | 23 | 24 | 25 |  | hERG ([1]; hERG activity as % inhibition): 26%

Row | Compound | D6 (P. falciparum D6; SYBR Green Assay) [ng/mL] | W2 (P. falciparum W2; SYBR Green Assay) [ng/mL] | C235 (P. falciparum C235; SYBR Green Assay) [ng/mL] | hERG [1, 2] [%] | other results
17 | CC(C)(C)c1ccc(-c2nc(NCCCN3CCCC3)nc(C(Cl)(Cl)Cl)n2)cc1 [Cmpd 34] | 152 | 141 | 152 | 80.9 | 
18 | 3-(4-((3-(dimethylamino)propyl)amino)-6-(trichloromethyl)-1,3,5-triazin-2-yl)benzoic acid [Example 11] | 588 | 475 | 592 |  | hERG ([1]; hERG activity as % inhibition): 15%
19 | CN1CCC(Nc2nc(-c3ccccc3)nc(C(Cl)(Cl)Cl)n2)CC1 [Cmpd 237] | 47 | 32 | 31 | 107 | 
20 | CC(CNc1nc(-c2ccc(Cl)c(Cl)c2)nc(C(Cl)(Cl)Cl)n1)N(C)C (centres unmarked) [Example 1, N^1-(4-(3,4-dichlorophenyl)-6-(trichloromethyl)-1,3,5-triazin-2-yl)-N^2,N^2-dimethylpropane-1,2-diamine] |  |  |  |  | IC50 (P. falciparum D6; [3]): 0.0416 µg/mL (≈ 0.0937 µM); IC50 (P. falciparum W2; [3]): 0.0294 µg/mL (≈ 0.0663 µM); IC50 (P. falciparum C235; [3]): 0.0367 µg/mL (≈ 0.0828 µM); hERG ([1]; hERG activity as % inhibition): 95%
21 | ClC(Cl)(Cl)c1nc(NCCN2CCCC2)nc(-c2ccc(OCc3ccccc3)cc2)n1 [Cmpd 35] | 194 | 125 | 186 | 56 | 
22 | Clc1cc(Cl)cc(-c2nc(NCCN3CCCC3)nc(C(Cl)(Cl)Cl)n2)c1 [Cmpd 202] | 7 | 10 | 7 | 51 | 
23 | COc1ccccc1-c1nc(NCC(C)(C)N)nc(C(Cl)(Cl)Cl)n1 [Cmpd 217] | 43 | 20 | 20 | 62 | 
24 | CS(=O)(=O)c1ccc(-c2nc(NCCN3CCCC3)nc(C(Cl)(Cl)Cl)n2)cc1 [Cmpd 39] | 85 | 45 | 92 | 90 | 
25 | Clc1ccc(-c2nc(NCCCCCN3CCCC3)nc(C(Cl)(Cl)Cl)n2)cc1 [Cmpd 561] |  |  |  |  | D6 (SYBR Green Assay IC50) (P. falciparum D6): 0.03967 µg/mL; W2 (SYBR Green Assay IC50) (P. falciparum W2): 0.02784 µg/mL; C235 (SYBR Green Assay IC50) (P. falciparum C235): 0.03869 µg/mL; hERG (% inhibition) [1]: 63%
26 | ClC(C1═NC(NCCO)═NC(C2═CC(C(F)(F)F)═CC═C2)═N1)(Cl)Cl [Compound 647] |  |  |  |  | D6 (SYBR Green Assay IC50) (P. falciparum D6): 0.035 µg/mL; W2 (SYBR Green Assay IC50) (P. falciparum W2): 0.023 µg/mL; C235 (SYBR Green Assay IC50) (P. falciparum C235): 0.039 µg/mL; hERG (% inhibition) [1]: 100%
27 | COc1ccc(cc1)c2nc(nc(n2)C(Cl)(Cl)Cl)N3CC4CC3CN4 [Compound 718] | 278.6 | 77.35 | 139.2 |  | hERG ([1]; hERG activity as % inhibition): 23.5%
28 | Clc1ccc(-c2nc(NCCc3ccccn3)nc(C(Cl)(Cl)Cl)n2)cc1 [Cmpd 140] | 106 | 32 | 136 | 11 | 
29 | COc1ccc(-c2nc(NCc3ccncc3)nc(C(Cl)(Cl)Cl)n2)cc1 [Cmpd 130] | 12 | 5 | 24 | 20 | 
30 | CN(C)CCCNc1nc(Nc2ccc(Cl)c(Cl)c2)nc(n1)C(Cl)(Cl)Cl [Compound 637] |  |  |  |  | D6 (SYBR Green Assay IC50) (P. falciparum D6): 0.017 µg/mL; W2 (SYBR Green Assay IC50) (P. falciparum W2): 0.013 µg/mL; C235 (SYBR Green Assay IC50) (P. falciparum C235): 0.02 µg/mL; hERG (% inhibition) [1]: 103%
31 | CCC(N)(CC)CNc1nc(-c2ccc(Cl)cc2)nc(C(Cl)(Cl)Cl)n1 [Cmpd 356] |  |  |  |  | D6 (SYBR Green Assay IC50) (P. falciparum D6): 0.003 µg/mL; W2 (SYBR Green Assay IC50) (P. falciparum W2): 0.003 µg/mL; C235 (SYBR Green Assay IC50) (P. falciparum C235): 0.007 µg/mL; hERG (% inhibition) [1]: 44%
32 | CN1CCCC1CCNc1nc(-c2ccc(Cl)cc2)nc(C(Cl)(Cl)Cl)n1 (centres unmarked) [Cmpd 91] | 31 | 19 | 32 | 79 | 
